Consider 8 compounds from PubChem BioAssay (NCI).

Some test systems named below: MCF7 breast; OVCAR-5 ovarian; CAKI-1 renal; NCI-H23 lung; UO-31 renal; RXF 393 renal; NCI-H522 lung; BT-549 breast; EKVX NSCLC; OVCAR-8 ovarian.
Common to all, as to assay: DTP human tumour cell line panel, 48 h

Each structure is given as a SMILES string.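 Compound exposure: 48 hours, 5 concentrations, 96-well plates. Here, GI50 denotes the concentration required for 50% inhibition of growth. The concentration for full growth arrest is given as TGI.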

In the case of `N#CC1=C(N)Oc2c(sc3c(Br)cccc23)C1c1ccc([N+](=O)[O-])cc1` (stereo not given), the GI50 in the test with MCF7 breast was 0.151 µM; with OVCAR-5 ovarian, 1.4 µM; with CAKI-1 renal, 0.0837 µM; with NCI-H23 lung, 0.131 µM; in the test on UO-31 renal, 0.126 µM; in the test on RXF 393 renal, 0.036 µM. Besides, the GI50 in the test on NCI-H522 lung was 0.0216 µM; with BT-549 breast, 0.319 µM; in the test on EKVX NSCLC, 0.462 µM; in the test on OVCAR-8 ovarian, 0.227 µM. In addition, the TGI in the test with MCF7 breast came out at 11.6 µM; with OVCAR-5 ovarian it was 16.4 µM; in the test on CAKI-1 renal it was 16.9 µM; in the test on NCI-H23 lung, 13.2 µM; in the test with UO-31 renal, 14.5 µM; in the test on RXF 393 renal it was 2.23 µM. Moreover, the TGI with NCI-H522 lung amounted to 0.616 µM; in the test on BT-549 breast, 5.31 µM; in the test with EKVX NSCLC, 19.4 µM; in the test on OVCAR-8 ovarian, 12.2 µM.

As to `C=C(CO)C(=O)OC1CC(=C)C2CC(O)C(C)C2C2OC(=O)C(=C)C12` (stereo not given), the TGI in the test with MCF7 breast was 34.3 µM; in the test on OVCAR-5 ovarian it was greater than 100 µM; with CAKI-1 renal, 36.6 µM; with NCI-H23 lung, greater than 100 µM; in the test on UO-31 renal, 36.6 µM; in the test on RXF 393 renal it was 36.4 µM. For the same compound, the TGI in the test with NCI-H522 lung is 45.8 µM; with BT-549 breast it was 32.3 µM; with EKVX NSCLC, greater than 100 µM; in the test on OVCAR-8 ovarian, 69.9 µM.

With `O=C1NN2CC(c3ccccc3)=NN=C2c2ccccc21`, the GI50 with MCF7 breast is 15.8 µM; in the test on OVCAR-5 ovarian, 37.9 µM; in the test on CAKI-1 renal it was 33.5 µM; in the test with NCI-H23 lung it was 17.7 µM; in the test with UO-31 renal, 28 µM; with RXF 393 renal, 23 µM. Also, the GI50 is 34.7 µM with NCI-H522 lung, 24.5 µM with BT-549 breast, 31.3 µM in the test on EKVX NSCLC and 29.1 µM with OVCAR-8 ovarian. Moreover, the TGI with MCF7 breast was 37.2 µM; in the test on OVCAR-5 ovarian, greater than 100 µM; in the test on CAKI-1 renal, greater than 100 µM; with NCI-H23 lung, 38.7 µM; in the test on UO-31 renal, 66.6 µM; in the test with RXF 393 renal, 48.4 µM. The TGI in the test on NCI-H522 lung was 77.1 µM; in the test on BT-549 breast it was 57 µM; in the test on EKVX NSCLC it was greater than 100 µM; in the test on OVCAR-8 ovarian, 74 µM.

With `O=S(=O)(NCCCNc1cc(-c2cn(-c3ccccc3)nc2-c2cccc(O)c2)ccn1)c1ccc(C(F)(F)F)cc1`, the GI50 is 2.11 µM in the test on MCF7 breast; 1.92 µM in the test on OVCAR-5 ovarian; 2.08 µM in the test with CAKI-1 renal; 1.65 µM with NCI-H23 lung; 2.04 µM in the test on UO-31 renal; 1.24 µM in the test on RXF 393 renal. Also, the GI50 in the test with NCI-H522 lung is 2.28 µM; with BT-549 breast, 1.39 µM; in the test with EKVX NSCLC it was 2.45 µM; with OVCAR-8 ovarian, 2.47 µM. The TGI came out at 6.58 µM with MCF7 breast; 5.16 µM with OVCAR-5 ovarian; 7.81 µM in the test on CAKI-1 renal; 3.94 µM in the test on NCI-H23 lung; 5.74 µM with UO-31 renal; 2.84 µM in the test with RXF 393 renal. Moreover, the TGI turned out to be 4.83 µM in the test with NCI-H522 lung, 2.8 µM in the test with BT-549 breast, 10.7 µM with EKVX NSCLC and 7.66 µM with OVCAR-8 ovarian.

For `C[C@@H]1CN2[C@H]3[C@@H]1CC[C@]31CCC(=O)O[C@]1(C)[C@H]1CC[C@H]3CCC=C3[C@@H]12`, the GI50 in the test with MCF7 breast, in the test with OVCAR-5 ovarian, with CAKI-1 renal, with NCI-H23 lung, in the test with UO-31 renal and in the test with RXF 393 renal was greater than 30 µM in each case. Besides, the GI50 with NCI-H522 lung, with BT-549 breast, in the test with EKVX NSCLC and with OVCAR-8 ovarian was greater than 30 µM in each case. Besides, the concentration for total growth inhibition (TGI) in the test with MCF7 breast, in the test with OVCAR-5 ovarian, in the test on CAKI-1 renal, in the test on NCI-H23 lung, in the test with UO-31 renal and with RXF 393 renal was greater than 30 µM in each case. In addition, the concentration for total growth inhibition (TGI) in the test on NCI-H522 lung, with BT-549 breast, with EKVX NSCLC and in the test on OVCAR-8 ovarian was greater than 30 µM in each case.

As to `CNC(=O)Oc1cc(C(C)C)ccc1Sc1ccc(C(C)C)cc1OC(=O)NC`, the GI50 is 5.49 µM in the test with MCF7 breast; 11.4 µM in the test on OVCAR-5 ovarian; 3.34 µM in the test with CAKI-1 renal; 6.5 µM in the test on NCI-H23 lung; 3.28 µM in the test on UO-31 renal; 2.52 µM in the test on RXF 393 renal. The GI50 with NCI-H522 lung was 4.98 µM; in the test on BT-549 breast, 3.44 µM; in the test on EKVX NSCLC, 1.59 µM; in the test on OVCAR-8 ovarian, 5.42 µM. The TGI with MCF7 breast was determined as 18.2 µM; in the test with OVCAR-5 ovarian, 25.7 µM; with CAKI-1 renal, 17.1 µM; in the test on NCI-H23 lung, 23.6 µM; in the test with UO-31 renal, 16.6 µM; in the test on RXF 393 renal, 9.34 µM. Moreover, the TGI was determined as 19.1 µM in the test with NCI-H522 lung, 12 µM in the test with BT-549 breast, 7.14 µM in the test on EKVX NSCLC and 27.9 µM in the test on OVCAR-8 ovarian.

Take `O=C(N/N=C/c1ccc(Cl)cc1)c1ccc(NC(=O)c2ccccn2)cc1`: the GI50 was 47.3 µM in the test with MCF7 breast; 68 µM in the test with OVCAR-5 ovarian; 21.1 µM in the test on CAKI-1 renal; 26.3 µM in the test with NCI-H23 lung; 11.2 µM in the test on UO-31 renal; 15.4 µM in the test with RXF 393 renal. The GI50 was 31.5 µM in the test with NCI-H522 lung, 25 µM in the test with BT-549 breast, 48.7 µM in the test on EKVX NSCLC and 35.7 µM with OVCAR-8 ovarian. Also, the TGI in the test with MCF7 breast is greater than 100 µM; with OVCAR-5 ovarian it was greater than 100 µM; in the test on CAKI-1 renal it was greater than 100 µM; in the test with NCI-H23 lung it was greater than 100 µM; in the test on UO-31 renal, 38.2 µM; with RXF 393 renal it was 63.3 µM. The TGI was greater than 100 µM in the test on NCI-H522 lung, 99.6 µM in the test with BT-549 breast, greater than 100 µM with EKVX NSCLC and greater than 100 µM in the test with OVCAR-8 ovarian.

For the compound `COc1cc2cc(NCc3cccc(Cl)c3)nc(C)c2cc1OC`, the GI50 was 4.72 µM in the test on MCF7 breast; 1.5 µM in the test on OVCAR-5 ovarian; 2.7 µM with CAKI-1 renal; 0.913 µM in the test with NCI-H23 lung; 0.678 µM with UO-31 renal; 3.57 µM with RXF 393 renal. Moreover, the GI50 was 1.01 µM in the test with NCI-H522 lung, 1.47 µM with BT-549 breast, 3.52 µM in the test on EKVX NSCLC and 3.04 µM in the test with OVCAR-8 ovarian. Moreover, the TGI came out at 23 µM in the test with MCF7 breast; 25.4 µM with OVCAR-5 ovarian; 24.4 µM in the test with CAKI-1 renal; 13.9 µM in the test on NCI-H23 lung; 14.4 µM in the test with UO-31 renal; 16.3 µM in the test on RXF 393 renal. Besides, the TGI in the test on NCI-H522 lung is 10.4 µM; with BT-549 breast it was 8.96 µM; in the test with EKVX NSCLC, 36.5 µM; in the test with OVCAR-8 ovarian, 23.6 µM.

One may read the GI50 as the concentration at which growth is held to half of that of the control. The TGI is the concentration at which net growth stops.
